Several values for one entry are separate records, joined by “and”; a condition that tells them apart may be missing. Equal values may be shown once. Toxic doses and inconclusive results are not listed. No stated cut-off is given here; in the data, active means T/C of 150% or more; inactive means T/C below 125%. Square brackets hold non-standard residues; d marks the D form. Peptide text beside a SMILES is read from it. ξ: configuration not given here. ξK = NCCCCC(N)C(=O)O
System: L1210 leukemia ip in BDF1 mice, survival T/C
Assay: NCI In Vivo Anticancer Drug Screen. Data for tumor model L1210 Leukemia (intraperitoneal) in B6D2F1 (BDF1) mice
Conditions: endpoint: mean survival time, higher = longer survival
How it was run: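 Each compound was tested against a transplantable tumor grown in mice. The endpoint was survival, with treated animals benchmarked against vehicle controls as a simple ratio.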

[1] = dose: 100.0 mg/kg/injection, schedule: Q01DX001 (ip), vehicle: saline
[2] = dose: 100.0 mg/kg/injection, schedule: Q01DX009 (ip), vehicle: saline
[3] = dose: 100.0 mg/kg/injection, schedule: Q04DX003 (ip), vehicle: saline
[4] = dose: 200.0 mg/kg/injection, schedule: Q01DX001 (ip), vehicle: saline
[5] = dose: 200.0 mg/kg/injection, schedule: Q01DX009 (ip), vehicle: saline
[6] = dose: 200.0 mg/kg/injection, schedule: Q04DX003 (ip), vehicle: saline
[7] = dose: 400.0 mg/kg/injection, schedule: Q01DX001 (ip), vehicle: saline
[8] = dose: 400.0 mg/kg/injection, schedule: Q01DX009 (ip), vehicle: saline
[9] = dose: 400.0 mg/kg/injection, schedule: Q04DX003 (ip), vehicle: saline
[10] = dose: 200.0 mg/kg/injection, schedule: Q04DX003 (ip), vehicle: Klucel (hydroxypropylcellulose) (HPC)
[11] = dose: 100.0 mg/kg/injection, schedule: Q01DX009 (ip), vehicle: gum acacia
[12] = dose: 100.0 mg/kg/injection, schedule: Q04DX003 (ip), vehicle: gum acacia
[13] = dose: 200.0 mg/kg/injection, schedule: Q04DX003 (ip), vehicle: gum acacia
[14] = dose: 25.0 mg/kg/injection, schedule: Q01DX009 (ip), vehicle: saline
[15] = dose: 50.0 mg/kg/injection, schedule: Q01DX009 (ip), vehicle: saline
[16] = dose: 100.0 mg/kg/injection, schedule: Q01DX009 (ip), vehicle: saline with Tween-80
[17] = dose: 100.0 mg/kg/injection, schedule: Q04DX003 (ip), vehicle: saline with Tween-80
[18] = dose: 200.0 mg/kg/injection, schedule: Q01DX009 (ip), vehicle: saline with Tween-80
[19] = dose: 200.0 mg/kg/injection, schedule: Q04DX003 (ip), vehicle: saline with Tween-80
[20] = dose: 400.0 mg/kg/injection, schedule: Q04DX003 (ip), vehicle: saline with Tween-80

Measured: T/C

O=C1CCC(=O)C2CC=CCC12 (centres undefined)
inactive: dose: 100.0 mg/kg/injection, schedule: Q## X003 (ip), vehicle: saline 101 % of control | dose: 200.0 mg/kg/injection, schedule: Q## X003 (ip), vehicle: saline 108 % of control | dose: 400.0 mg/kg/injection, schedule: Q## X003 (ip), vehicle: saline 98 % of control

Nc1ncn(C2OC(CO)C(O)C2O)n1 (centres undefined)
inactive: dose: 100.0 mg/kg/injection, schedule: Q01DX005 (ip), vehicle: saline 105 % of control | dose: 200.0 mg/kg/injection, schedule: Q01DX005 (ip), vehicle: saline 103 % of control

CCOC(=O)C1=C2C(C(=O)OCC)C(O)=C(C(=O)OCC)C2C(C(=O)OCC)C1=O (centres undefined)
inactive: [1] 103 % of control | [2] 104 % of control | [3] 97 % of control | [4] 92 % of control | [5] 104 % of control | [6] 103 % of control | [7] 97 % of control | [8] 109 % of control | [9] 117 % of control

O=S(=O)(Oc1cccc(C(F)(F)F)c1)c1cccc(C(F)(F)F)c1
inactive: dose: 6.25 mg/kg/injection, schedule: Q01DX009 (ip), vehicle: saline sonified 101 % of control | dose: 6.25 mg/kg/injection, schedule: Q04DX003 (ip), vehicle: Klucel (hydroxypropylcellulose) (HPC) 103 % of control | dose: 12.5 mg/kg/injection, schedule: Q01DX009 (ip), vehicle: saline sonified 97 % of control | dose: 12.5 mg/kg/injection, schedule: Q04DX003 (ip), vehicle: Klucel (hydroxypropylcellulose) (HPC) 109 % of control | dose: 25.0 mg/kg/injection, schedule: Q01DX009 (ip), vehicle: saline sonified 90 % of control | dose: 25.0 mg/kg/injection, schedule: Q04DX003 (ip), vehicle: Klucel (hydroxypropylcellulose) (HPC) 117 % of control | [10] 86 % of control

Cc1ccc(-c2nc3ccccc3c(=O)o2)cc1
inactive: dose: 50.0 mg/kg/injection, schedule: Q01DX009 (ip), vehicle: gum acacia 93 % of control and 100 % of control | [11] 93 % of control and 100 % of control | [12] 106 % of control | [13] 88 % of control

CC(C)CCN=C(N)N=C(N)N
inactive: [14] 105 % of control | [15] 107 % of control | [2] 104 % of control | dose: 100.0 mg/kg/injection, schedule: Q04DX002 (ip), vehicle: saline 100 % of control

CC1(C)CCC2CC(=O)OC2(C)C1 (centres undefined)
inactive: [1] 109 % of control | [2] 100 % of control | [4] 95 % of control | [5] 94 % of control | [7] 92 % of control | [8] 98 % of control

S=c1sc2ccccc2n1CN(c1ccccc1)c1ccc2ccccc2c1
inactive: [16] 88 % of control | [17] 88 % of control | [18] 90 % of control | [19] 88 % of control | dose: 400.0 mg/kg/injection, schedule: Q01DX009 (ip), vehicle: saline with Tween-80 94 % of control | [20] 93 % of control

CC(=O)[O][Pb]([c]1ccccc1)([c]1ccccc1)[c]1ccccc1
inactive: dose: 0.5 mg/kg/injection, schedule: Q01DX015 (ip), vehicle: carboxymethylcellulose (CMC) 112 % of control | dose: 1.0 mg/kg/injection, schedule: Q01DX015 (ip), vehicle: carboxymethylcellulose (CMC) 90 % of control | dose: 2.0 mg/kg/injection, schedule: Q01DX015 (ip), vehicle: carboxymethylcellulose (CMC) 87 % of control | dose: 4.0 mg/kg/injection, schedule: Q01DX015 (ip), vehicle: carboxymethylcellulose (CMC) 96 % of control

c1ccc(C2=C(c3ccccc3)SC(c3ccccc3)=C(c3ccccc3)S2)cc1
inactive: [3] 102 % of control | [6] 98 % of control | [9] 104 % of control

O=C(CSc1cc(Cl)c(Cl)cc1Cl)Nc1ccccc1Br
inactive: dose: 50.0 mg/kg/injection, schedule: Q01DX009 (ip), vehicle: saline with Tween-80 94 % of control | [16] 97 % of control | [18] 87 % of control

CCCCO.CCCCO.Cl.[O]=[V]
inactive: dose: 4.0 mg/kg/injection, schedule: Q01DX015 (ip), vehicle: other 97 % of control | dose: 8.0 mg/kg/injection, schedule: Q01DX015 (ip), vehicle: other 97 % of control | dose: 16.0 mg/kg/injection, schedule: Q01DX015 (ip), vehicle: other 96 % of control | dose: 32.0 mg/kg/injection, schedule: Q01DX015 (ip), vehicle: other 108 % of control

OCC1OCC(O)C(O)C1O (centres undefined)
inactive: [15] 94 % of control | [2] 91 % of control | [5] 88 % of control

COc1ccc(COc2ccc(OC)cc2)cc1
inactive: [17] 95 % of control | [19] 96 % of control | [20] 98 % of control

CN(CCc1cnc2nc(N)nc(N)c2n1)c1ccc(C(=O)O)cc1
inactive: dose: 75.0 mg/kg/injection, schedule: Q01DX001 (ip), vehicle: saline 115 % of control

Cc1cnc(N(C)CC(=O)O)nc1-c1ccccc1O
inactive: dose: 100.0 mg/kg/injection, schedule: Q04DX002 (ip), vehicle: Klucel (hydroxypropylcellulose) (HPC) 96 % of control | dose: 200.0 mg/kg/injection, schedule: Q04DX002 (ip), vehicle: Klucel (hydroxypropylcellulose) (HPC) 89 % of control

Cc1cccc(NC(=O)Nc2ccccc2Cl)c1C
inactive: dose: 100.0 mg/kg/injection, schedule: Q01DX009 (ip), vehicle: Klucel (hydroxypropylcellulose) (HPC) 94 % of control | dose: 100.0 mg/kg/injection, schedule: Q04DX003 (ip), vehicle: Klucel (hydroxypropylcellulose) (HPC) 95 % of control | dose: 200.0 mg/kg/injection, schedule: Q01DX009 (ip), vehicle: Klucel (hydroxypropylcellulose) (HPC) 92 % of control | [10] 110 % of control | dose: 400.0 mg/kg/injection, schedule: Q01DX009 (ip), vehicle: Klucel (hydroxypropylcellulose) (HPC) 96 % of control | dose: 400.0 mg/kg/injection, schedule: Q04DX003 (ip), vehicle: Klucel (hydroxypropylcellulose) (HPC) 96 % of control

CCCCCCCCCCCC1=C(O)C(=O)C(CC2=C(O)C(=O)C(CCCCCCCCCCC)=C(O)C2=O)=C(O)C1=O
inactive: dose: 200.0 mg/kg/injection, schedule: Q01DX001 (ip), vehicle: carboxymethylcellulose (CMC) 100 % of control | dose: 400.0 mg/kg/injection, schedule: Q01DX001 (ip), vehicle: carboxymethylcellulose (CMC) 103 % of control

CCCCCCCCCCCCC/C=N\NC(=O)CCCC(=O)N/N=C/CCCCCCCCCCCCC
inactive: dose: 50.0 mg/kg/injection, schedule: Q01DX001 (ip), vehicle: other 93 % of control | dose: 100.0 mg/kg/injection, schedule: Q01DX001 (ip), vehicle: other 91 % of control | dose: 200.0 mg/kg/injection, schedule: Q01DX001 (ip), vehicle: other 93 % of control | dose: 400.0 mg/kg/injection, schedule: Q01DX001 (ip), vehicle: other 98 % of control

Cc1cc(Cl)ccc1NC(=O)Nc1ccccc1
inactive: [11] 87 % of control | [12] 87 % of control | dose: 200.0 mg/kg/injection, schedule: Q01DX009 (ip), vehicle: gum acacia 89 % of control | [13] 89 % of control | dose: 400.0 mg/kg/injection, schedule: Q01DX009 (ip), vehicle: gum acacia 87 % of control | dose: 400.0 mg/kg/injection, schedule: Q04DX003 (ip), vehicle: gum acacia 90 % of control

CC(=O)OCC(OC(C)=O)C(OC(C)=O)C(COC(C)=O)OC(C)=O (centres undefined)
inactive: dose: 25.6 mg/kg/injection, schedule: Q04DX002 (ip), vehicle: saline with Tween-80 108 % of control | dose: 64.0 mg/kg/injection, schedule: Q04DX002 (ip), vehicle: saline with Tween-80 104 % of control | dose: 160.0 mg/kg/injection, schedule: Q04DX002 (ip), vehicle: saline with Tween-80 93 % of control | dose: 400.0 mg/kg/injection, schedule: Q04DX002 (ip), vehicle: saline with Tween-80 93 % of control

NCCCCC(NC(=O)CN)C(=O)O (centres undefined) (H-Gly-[ξK]-OH)
inactive: [1] 101 % of control | [4] 103 % of control | [7] 95 % of control

C[N+](C)(C)C1CC1
inactive: dose: 12.5 mg/kg/injection, schedule: Q01DX009 (ip), vehicle: saline 94 % of control | [14] 98 % of control | dose: 25.0 mg/kg/injection, schedule: Q04DX003 (ip), vehicle: saline 93 % of control | [15] 96 % of control and 102 % of control | dose: 50.0 mg/kg/injection, schedule: Q04DX003 (ip), vehicle: saline 103 % of control

From PubChem BioAssay AID248 (DTP/NCI, 2004)
